This is an account of results in patent publication US7582417B2, “Sequential reporter enzyme luminescence (SRL) methods and compositions for practicing the same” (The Board of Trustees of the Leland Stanford Junior …, priority 2006, dated 2009).

The conditions of data set [1]: published value; cited from earlier work.
The target in data set [2] is T1, β-gal activity of implanted FLuc/LacZ cells (Escherichia coli, UniProt P00722). Nature of the data set: Near-infrared fluorescent imaging of β-gal activity with DDAOG. The format is in vivo, mouse. The arrangement: expressed in transfected cells; host or cells: C2C12 mouse myoblasts, retrovirally transduced (FLuc/LacZ cells). To be noted: 1×10^6 cells, right vs left leg. The protocol: The near-infrared imaging probe DDAOG (Molecular Probes) was injected intravenously (0.5 mg of DDAOG in 100 μl of DMSO and PBS (1:1)). NIRF reflectance imaging was performed using an IVIS-200 imager (Xenogen) with a custom filter set (excitation: 615-645; emission: 680-720 nm) (Omega Optical). Images were continuously acquired over 45 min after substrate injection and the images showing optimal signal-to-noise ratios were chosen for comparison.

The target of data set [3] is T2, somatostatin 2 receptor (SSTR2) (Homo sapiens, UniProt P30874).
T2 construct: expressed in transfected cells; host or cells: C2C12 myoblasts, retrovirally transduced; the in vivo cells also carry Ras and FLuc
The experiment in a line: In vivo luminescent imaging of somatostatin 2 receptor activation (SSTR2/Fluc cells in BALB/c nude mice, Lugal). Particulars: after octreotide i.p. An excerpt: All protocols were approved by the Administrative Panel on Laboratory Animal Care at Stanford University School of Medicine. BALB/c nude were obtained from the Stanford University in-house colony. C2C12 myoblasts were harvested and suspended in 0.5% BSA in PBS at a final concentration of 10^8 cells/ml for injection. 4×10^6 cells carrying the β2/arrestin β-gal/Ras/FLuc or the SSTR2/arrestin β-gal/Ras/FLuc constructs were subcutaneously into the back of mice (2 injections/mouse), and allowed to grow into small tumors over 7 to 14 days.
Imaging was carried out using a Xenogen-100 device as previously described. Briefly, the system is composed of a light-tight imaging chamber, a digital CCD camera colled by a cryogenic refrigeration unit and a computer system (Living Image™ 2.50 software, Xenogen, Alameda).
We engineered new cell lines carrying the SSTR2/arrestin-β-galactosidase construct by retroviral transduction with the Fluc and ras genes (SSTR2/Fluc).

In data set [4] the target is T3, mouse angiotensin receptor 1 (AGTR1) (Mus musculus, UniProt P29754).
T3 construct: expressed in transfected cells; host or cells: C2C12 myoblasts, retrovirally transduced
Nature of the data set: GPCR/arrestin β-gal complementation assay, AGTR1 cell line. The format is cell-based.
Procedure: Cells expressing the GPCR-α* and β-arrestin2-ω fusions were seeded at 20,000 cells/well in a 96-well dish overnight. Ligand was added for 1 hour. Media is aspirated and 50 ul of lysis solution (buffer A) and substrate (Gal-screen) in a 25:1 ratio was added to each well. The plates were incubated for 60-90 min at room temperature before reading in a TR717 luminometer with an integration time of 1 second. EC50 values were calculated using non-linear regression with a variable slope sigmoidal dose response algorithm in Prism software (Graphpad).
To test the sensitivity of the GPCR/arrestin assay, each cell line was plated in a 96-well dish and treated for 60 minutes with escalating doses of the indicated agonist (FIG. 9B). β-gal activity was measured using a luminescent substrate (Tropix).

Data set [5] addresses T1, β-gal activity of implanted FLuc/LacZ cells. The protocol:
Imaging was performed using a Xenogen-100 device as previously described (Cao et al., supra). Briefly, the system is comprised of a light-tight imaging chamber, a cooled digital CCD camera with a cryogenic refrigeration unit and the appropriate computer system (Living Image™ 2.50 software, Xenogen, Alameda). […] C2C12 myoblasts were harvested and suspended in 0.5% BSA in PBS at a final concentration of 10^8 cells/ml for injection. For experiment shown in FIG. 1e, 10^6 cells expressing LacZ and FLuc (FLuc/LacZ cells) were injected into the right tibialis anterior muscle (TA) and 10^6 cells expressing FLuc only (FLuc cells) into the left TA of BALB/c nude mice. […] For experiment shown in FIGS. 2a and 2b, a range of cell numbers between 5×10^4 and 2×10^6 were injected subcutaneously in 10 different locations of the back of BALB/c nude mice.

In data set [6] the target is β-gal activity in FLuc/LacZ C2C12 cells (Escherichia coli, UniProt P00722). The protocol:
The parental MFG-IRES-lyt-2 construct was used to generate the lyt-2 expressing myoblasts. Retroviral transduction was performed using the ecotropic ΦNX packaging cell line (generous gift of GP Nolan). This line was transiently transfected with the proviral constructs using Fugene transfection reagent (Boehringer Mannheim). […] Polybrene was added to a final concentration of 8 μg/ml (Sigma) and cells were spun at 2,000 RPM in a Beckman GS-6 centrifuge. Cells transduced with the Luciferase-IRES-lyt-2 construct or the parental MFG-IRES-lyt-2 construct were stained with an anti-lyt-2 antibody conjugated to APC (BD Pharmingen). Cells were sorted by FACS on a Becton Dickinson flow cytometer with MoFlo electronics. […] For the in vitro cell studies, C2C12 cells were seeded in growth medium into a 384-well dish. […] The plate was read on a Tropix TR717 luminometer at room temperature with an integration time of 1 s/well. […] Cell lysates were prepared by aspirating the media and adding 15 ul of lysis buffer (1% Triton-X100, 50 mM Tris-HCl, 10 mM MgCl2, 10 mM DTT, 1 mM ATP, pH 7.5). For wells with intact cells, 15 ul of PBS was substituted for lysis buffer. The substrates were added at equivalent volumes to bring the reaction volume to 30 ul.

Some results are limits rather than exact numbers.

T1 sequence (P00722 whole entry): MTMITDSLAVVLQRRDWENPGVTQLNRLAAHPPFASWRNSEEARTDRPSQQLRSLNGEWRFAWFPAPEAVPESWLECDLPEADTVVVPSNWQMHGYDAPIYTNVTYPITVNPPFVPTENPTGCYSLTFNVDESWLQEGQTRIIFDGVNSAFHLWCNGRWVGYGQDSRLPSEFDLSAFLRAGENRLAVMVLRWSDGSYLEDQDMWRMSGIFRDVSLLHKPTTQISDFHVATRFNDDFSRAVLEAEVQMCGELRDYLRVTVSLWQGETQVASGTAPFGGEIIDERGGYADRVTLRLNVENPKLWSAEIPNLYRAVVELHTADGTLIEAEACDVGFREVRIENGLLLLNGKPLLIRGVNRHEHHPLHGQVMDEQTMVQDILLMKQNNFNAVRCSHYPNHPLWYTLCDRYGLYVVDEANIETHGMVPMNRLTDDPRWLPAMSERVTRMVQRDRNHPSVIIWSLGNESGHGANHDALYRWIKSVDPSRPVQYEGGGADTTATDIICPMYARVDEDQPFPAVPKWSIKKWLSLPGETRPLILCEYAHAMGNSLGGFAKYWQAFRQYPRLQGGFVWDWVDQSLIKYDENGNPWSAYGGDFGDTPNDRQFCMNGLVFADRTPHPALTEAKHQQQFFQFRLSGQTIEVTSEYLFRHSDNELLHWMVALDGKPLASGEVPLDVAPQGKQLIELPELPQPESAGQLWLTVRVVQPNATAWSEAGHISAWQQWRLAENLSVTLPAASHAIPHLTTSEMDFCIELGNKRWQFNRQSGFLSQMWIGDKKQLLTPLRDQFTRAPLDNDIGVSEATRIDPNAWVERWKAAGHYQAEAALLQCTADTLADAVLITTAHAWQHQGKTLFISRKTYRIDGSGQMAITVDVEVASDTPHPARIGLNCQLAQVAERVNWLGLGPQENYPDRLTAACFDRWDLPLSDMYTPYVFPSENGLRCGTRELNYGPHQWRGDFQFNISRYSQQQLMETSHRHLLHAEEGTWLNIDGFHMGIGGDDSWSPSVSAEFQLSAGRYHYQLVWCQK
T2 sequence (P30874 whole entry): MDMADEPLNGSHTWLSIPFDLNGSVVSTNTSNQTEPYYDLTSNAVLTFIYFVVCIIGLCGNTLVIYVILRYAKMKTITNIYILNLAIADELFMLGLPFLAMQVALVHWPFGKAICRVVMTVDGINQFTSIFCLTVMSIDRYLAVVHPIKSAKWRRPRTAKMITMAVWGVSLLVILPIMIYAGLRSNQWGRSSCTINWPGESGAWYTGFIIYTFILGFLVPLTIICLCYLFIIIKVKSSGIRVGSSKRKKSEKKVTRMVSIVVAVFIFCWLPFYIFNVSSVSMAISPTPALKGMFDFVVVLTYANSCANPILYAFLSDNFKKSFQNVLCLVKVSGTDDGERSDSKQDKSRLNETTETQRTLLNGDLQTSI
T2 sequence (P32121 whole entry partner): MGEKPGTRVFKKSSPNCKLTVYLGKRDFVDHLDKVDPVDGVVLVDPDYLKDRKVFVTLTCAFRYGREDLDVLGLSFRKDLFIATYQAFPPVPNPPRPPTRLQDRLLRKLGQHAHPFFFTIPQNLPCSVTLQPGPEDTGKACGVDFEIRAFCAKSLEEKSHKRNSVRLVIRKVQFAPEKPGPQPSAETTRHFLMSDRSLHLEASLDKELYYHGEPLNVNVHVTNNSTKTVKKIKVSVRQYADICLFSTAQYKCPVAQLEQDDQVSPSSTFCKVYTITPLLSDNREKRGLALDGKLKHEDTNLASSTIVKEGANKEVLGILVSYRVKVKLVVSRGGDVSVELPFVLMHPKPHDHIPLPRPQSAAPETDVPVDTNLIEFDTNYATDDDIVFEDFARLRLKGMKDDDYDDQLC
T3 sequence (P29754 whole entry): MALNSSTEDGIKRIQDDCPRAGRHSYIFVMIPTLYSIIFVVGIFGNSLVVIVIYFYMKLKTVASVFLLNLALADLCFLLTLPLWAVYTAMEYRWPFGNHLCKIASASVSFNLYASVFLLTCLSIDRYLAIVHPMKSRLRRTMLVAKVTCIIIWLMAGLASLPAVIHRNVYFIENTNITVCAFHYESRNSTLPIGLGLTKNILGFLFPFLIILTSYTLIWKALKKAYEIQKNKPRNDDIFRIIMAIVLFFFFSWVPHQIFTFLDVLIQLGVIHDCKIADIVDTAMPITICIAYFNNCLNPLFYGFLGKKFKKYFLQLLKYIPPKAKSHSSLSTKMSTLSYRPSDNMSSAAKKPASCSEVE
T3 sequence (P32121 whole entry partner): as the sequence (P32121 whole entry partner) above
Sequence of β-gal activity in FLuc/LacZ C2C12 cells (P00722 whole entry): as the sequence (P00722 whole entry) above

Turning to `CC(C)NCC(O)c1ccc(O)c(O)c1` (stereo not drawn) [isoproterenol], the serum half life result in data set [1] is given as “approx. 2 hours”.

In the case of `CC1(C)C2=C(Cl)C(=O)C(Cl)=CC2=Nc2ccc(O[C@@H]3O[C@H](CO)[C@H](O)[C@H](O)[C@H]3O)cc21` [DDAOG, 7-hydroxy-9H-(1,3-dichloro-9,9-dimethylacridin-2-one) β-D-galactoside], in data set [2], the “signal-to-noise ratio, fluorescence imaging, leg muscles” value is 2.8 fold.

For the compound `C[C@@H](O)[C@@H]1NC(=O)[C@H](CCCCN)NC(=O)[C@@H](Cc2c[nH]c3ccccc23)NC(=O)[C@H](Cc2ccccc2)NC(=O)[C@@H](NC(=O)[C@H](N)Cc2ccccc2)CSSC[C@@H](C(=O)N[C@H](CO)[C@@H](C)O)NC1=O` [octreotide], the serum half life result in data set [1] is given as “approx. 6 hours”. In addition, the “time for luminescence to return to baseline” value in data set [3] is 24 h; in data set [3] (listed as Octreotide), not above 24 h.

As for “angiotensin (DRVYIHPF; Angiotensin-2; UniProt P01019 25-32, looked up) [AGTR1 agonist obtained from Sigma]”, the EC50 result in data set [4] is given as “in good agreement with radiolabeled ligand binding assays”. In addition, in data set [4] (60 minutes agonist), the “increase in β-galactosidase activity” value was “greater than 15 fold”.

With “D-luciferin-O-β-galactopyranoside [Lugal]”, the “bioluminescence signal of FLuc/LacZ cells relative to FLuc cells” value in data set [5] (1×10^6 cells per tibialis anterior, right vs left leg, i.p. Lugal) is 30-200 fold. In data set [5] (1×10^6 cells, right vs left leg), the “signal-to-noise ratio, luminescence imaging, leg muscles” value came to 429 fold. Also, the “signal-to-noise ratio of Lugal relative to DDAOG, deeper tissues (skeletal muscle)” value in data set [5] (higher with Lugal) is 150 fold. Besides, in data set [6] (FLuc/LacZ C2C12 cells, 384-well dish, concentrations as low as), the “Lugal concentration at which strong luminescent signals were generated” value came out at 10 µg/mL. Also, the “Lugal concentration at which a measurable signal was generated without β-gal” value in data set [6] (cells expressing FLuc alone, only at the highest concentration) turned out to be 1000 µg/mL.
